Assay results as given in PubChem BioAssay (NCI).
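The compound was tested at five concentrations on cells cultured in 96-well plates, with a 48-hour exposure period. TGI denotes the concentration required for complete inhibition of growth.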

Experiments:
Experiment in all cases: DTP human tumour cell line panel, 48 h
[1] = tested on: DLD-1 colon
[2] = tested on: SNB-78 CNS
[3] = tested on: MOLT-4 leukemia
[4] = tested on: COLO 205 colon
[5] = tested on: EKVX NSCLC
[6] = tested on: OVCAR-4 ovarian
[7] = tested on: M19-MEL melanoma
[8] = tested on: RXF 393 renal
[9] = tested on: SW-620 colon
[10] = tested on: NCI-H522 lung
[11] = tested on: 786-0 renal
[12] = tested on: UACC-257 melanoma
[13] = tested on: CCRF-CEM leukemia
[14] = tested on: SN12C renal
[15] = tested on: HCT-15 colon
[16] = tested on: SF-268 CNS
[17] = tested on: SF-539 CNS
[18] = tested on: HCC-2998 colon
[19] = tested on: MALME-3M melanoma
[20] = tested on: NCI-H23 lung
[21] = tested on: DMS 273 small cell lung
[22] = tested on: A498 renal
[23] = tested on: TK-10 renal
[24] = tested on: DMS 114 small cell lung
[25] = tested on: HCT-116 colon
[26] = tested on: ACHN renal
[27] = tested on: SNB-19 CNS
[28] = tested on: SF-295 CNS
[29] = tested on: LXFL 529 NSCLC
[30] = tested on: M14 melanoma
[31] = tested on: NCI-H460 lung
[32] = tested on: HL-60(TB) leukemia
[33] = tested on: OVCAR-5 ovarian
[34] = tested on: SK-MEL-5 melanoma
[35] = tested on: UO-31 renal
[36] = tested on: HT29 colon
[37] = tested on: SNB-75 CNS
[38] = tested on: NCI-H226 lung
[39] = tested on: KM20L2 colon
[40] = tested on: KM12 colon
[41] = tested on: K-562 leukemia
[42] = tested on: SK-MEL-2 melanoma
[43] = tested on: SK-OV-3 ovarian
[44] = tested on: IGROV1 ovarian
[45] = tested on: OVCAR-3 ovarian
[46] = tested on: LOX IMVI melanoma
[47] = tested on: HOP-92 NSCLC
[48] = tested on: A549 NSCLC
[49] = tested on: HOP-62 NSCLC
[50] = tested on: CAKI-1 renal
[51] = tested on: U251 CNS
[52] = tested on: UACC-62 melanoma
[53] = tested on: RPMI-8226 leukemia
[54] = tested on: SK-MEL-28 melanoma
[55] = tested on: HOP-18 NSCLC
[56] = tested on: OVCAR-8 ovarian

`CN(C(=O)C1CC1)C1C2CN3CCC(O2)C13` (stereo unspecified) gave a TGI [1] of over 100 µM, a TGI [2] of over 100 µM and a TGI [3] of over 100 µM. For the same compound, the TGI [4] was over 100 µM, the TGI [5] was over 100 µM and the TGI [6] was over 100 µM. It also gave a TGI [7] of over 100 µM, a TGI [8] of over 100 µM and a TGI [9] of over 100 µM. It also gave a TGI [10] of over 100 µM, a TGI [11] of over 100 µM and a TGI [12] of over 100 µM. It also gave a TGI [13] of over 100 µM, a TGI [14] of over 100 µM and a TGI [15] of over 100 µM. It also gave a TGI [16] of over 100 µM, a TGI [17] of over 100 µM and a TGI [18] of over 100 µM. For the same compound, the TGI [19] was over 100 µM, the TGI [20] was over 100 µM and the TGI [21] was over 100 µM. For the same compound, the TGI [22] was over 100 µM, the TGI [23] was over 100 µM and the TGI [24] was over 100 µM. It also gave a TGI [25] of over 100 µM, a TGI [26] of over 100 µM and a TGI [27] of over 100 µM. It also gave a TGI [28] of over 100 µM, a TGI [29] of over 100 µM and a TGI [30] of over 100 µM. The TGI [31] was over 100 µM, the TGI [32] was over 100 µM and the TGI [33] was over 100 µM. It also gave a TGI [34] of over 100 µM, a TGI [35] of over 100 µM and a TGI [36] of over 100 µM. The TGI [37] was over 100 µM, the TGI [38] was over 100 µM and the TGI [39] was over 100 µM. It also gave a TGI [40] of over 100 µM, a TGI [41] of over 100 µM and a TGI [42] of over 100 µM. For the same compound, the TGI [43] was over 100 µM, the TGI [44] was over 100 µM and the TGI [45] was over 100 µM. The TGI [46] was over 100 µM, the TGI [47] was over 100 µM and the TGI [48] was over 100 µM. It also gave a TGI [49] of over 100 µM, a TGI [50] of over 100 µM and a TGI [51] of over 100 µM. For the same compound, the TGI [52] was over 100 µM, the TGI [53] was over 100 µM and the TGI [54] was over 100 µM. It also gave a TGI [55] of over 100 µM.

In the case of `CCc1ccccc1NC(=O)C1=C(C)NC(C)=C(C(=O)Nc2ccccc2CC)C1c1ccc(NC(C)=O)cc1`, the TGI [1] is reported as 87.6 µM, the TGI [2] is reported as 82.1 µM and the TGI [3] is reported as 54.4 µM. It also gave a TGI [4] of over 100 µM, a TGI [5] of over 100 µM and a TGI [6] of over 100 µM. For the same compound, the TGI [7] was over 100 µM, the TGI [8] was 65 µM and the TGI [9] was over 100 µM. The TGI [10] was 71.1 µM, the TGI [11] was over 100 µM and the TGI [12] was over 100 µM. It also gave a TGI [13] of 65.8 µM, a TGI [14] of over 100 µM and a TGI [16] of over 100 µM. For the same compound, the TGI [17] was 68 µM, the TGI [18] was 48.6 µM and the TGI [19] was over 100 µM. The TGI [20] was over 100 µM, the TGI [23] was over 100 µM and the TGI [56] was over 100 µM. The TGI [24] was over 100 µM, the TGI [25] was over 100 µM and the TGI [26] was over 100 µM. The TGI [27] was over 100 µM, the TGI [28] was over 100 µM and the TGI [29] was 87.2 µM. It also gave a TGI [30] of over 100 µM, a TGI [31] of over 100 µM and a TGI [32] of 39.5 µM. It also gave a TGI [33] of over 100 µM, a TGI [34] of over 100 µM and a TGI [35] of over 100 µM. It also gave a TGI [36] of over 100 µM, a TGI [37] of over 100 µM and a TGI [38] of over 100 µM. The TGI [39] was 58.8 µM, the TGI [40] was over 100 µM and the TGI [41] was 77.9 µM. For the same compound, the TGI [42] was 70.1 µM, the TGI [43] was over 100 µM and the TGI [44] was over 100 µM. For the same compound, the TGI [45] was over 100 µM, the TGI [46] was 44.2 µM and the TGI [47] was 90.6 µM. The TGI [48] was over 100 µM, the TGI [49] was 92.8 µM and the TGI [50] was over 100 µM. The TGI [51] was over 100 µM, the TGI [53] was 48.9 µM and the TGI [54] was 52.9 µM.
